Data set [1] is described as follows: Gastric Simulated Fluid (GSF) Test. The format is physicochemical. As to the method: Gastric Simulated Fluid (GSF) Test.
For all the experiments, physiological gastric conditions were reproduced taking into account the volume of gastric fluid on an empty stomach (35-40 mL) (Mudie D M et al. Quantification of gastrointestinal liquid volumes and distribution following a 240 mL dose of water in the fasted state. Mol Pharm. 2014 Sep. 2; 11(9):3039-47) and the fact that in the stomach, the salt concentration is different from that of blood plasma (0.25% vs 0.9%) (Sandra Klein. The Use of Biorelevant Dissolution Media to Forecast the In Vivo Performance of a Drug. AAPS J. 2010 September; 12(3): 397-406).
The effect of the alkalizing agent on gastric pH was simulated in vitro by preparing a 0.2% saline solution of NaCl and bringing the pH of the solution to around 1.2-2 with 37% hydrochloric acid diluted 1:5.
GSF was prepared using the components in table 1, all tests were performed simulating body temperature (37° C.) and performed in triplicate.
400 ml of GSF was stirred with magnetic stirrer and settled at 37° C. and the three-point digital pH meter was applied. 40 mg of Folic Acid was added to this solution.
The bright orange dispersion was stirred for 5 minutes at 200 rpm and then the stirring was stopped.
The same experiment was repeated adding 30 mg of Zinc Oxide to the same amount of folic acid. […] Such a pH was maintained in the range 5.0-5.5 also by simulating physiological acid secretion, combining 2 ml of 0.1 M HCl every 15 minutes for a total of 60 minutes.

For data set [2] the following is noted: non-ionized carboxylic acid form, in contact with gastric fluid (pH 1.5-2.0 empty, 3.5-4.5 full stomach); cited from earlier work.

Molecules are shown by their SMILES.

For `[O]=[Zn]` [Zinc Oxide], in data set [1] (30 mg Zinc Oxide + 40 mg folic acid in 400 ml GSF (initial pH 1.2-2), 37° C., after 5 minutes at 200 rpm), the “pH recorded in GSF after stirring” value is reported as 5.2. In addition, the “pH maintained under simulated physiological acid secretion” value in data set [1] (30 mg Zinc Oxide + 40 mg folic acid in 400 ml GSF, 2 ml of 0.1 M HCl every 15 minutes for a total of 60 minutes) was 5.0-5.5.

Turning to `Nc1nc2ncc(CNc3ccc(C(=O)N[C@@H](CCC(=O)O)C(=O)O)cc3)nc2c(=O)[nH]1` [folic acid, pteroyl(mono)-glutamic acid], the water solubility in data set [2] is below 10 µg/mL. Besides, in data set [1] (40 mg Folic Acid alone in 400 ml GSF pH 1.2-2, 37° C., stirred 5 minutes at 200 rpm, observed after 10 minutes), the “observation of folic acid solubility/precipitation in GSF” value was “complete precipitation”. For the same compound, the “observation of folic acid dissolution in GSF with Zinc Oxide” value in data set [1] (40 mg folic acid + 30 mg Zinc Oxide in 400 ml GSF, 37° C., stirred 5 minutes at 200 rpm) is recorded as “translucent orange solution in the absence of precipitation”.

These data come from patent publication US20230172966A1, “COMPOSITION FOR THE PREVENTION AND TREATMENT OF FOLATE AND/OR VITAMIN B12 DEFICIENCY CONDITIONS, PARTICULARLY HYPERHOMOCYSTEINEMIA” (INPHA RESEARCH S.R.L., priority 2020, published 2023).
